System: mThyl-hSNCA transgenic mice
Assay: mThyl-hSNCA transgenic mice
Format: in vivo, mouse
Conditions: TZ 0.03 mg/kg oral from 3 to 15 months old
Excerpt: FIG. 5. TZ improves TH levels and motor performance in genetic models of PD. A-E) Wild-type (w^1118) and PINK1^5 flies received TZ or vehicle for 10 days beginning on the first day after eclosion. Day 10 assays included: (A) Example of wing posture defect and percentage of w^1118 and PINK1^5 flies with wing posture defects. N=6, with 80 flies for each treatment in each trial. (B,C) Example of TH western blot (B) and quantification of TH (C). N=5, with 40 fly heads for each treatment in each trial. (D) ATP content in brains (relative to w^1118). N=3, with 200 fly heads for each treatment in each trial. (E) Climbing behavior. N=3, with 100 flies for each treatment in each trial. F) Climbing behavior of LRRK^ex1 male flies. N=6, with 100 flies for each treatment in each trial. […] (I,J) Quantification of α-synuclein in striatum and SNc. […]
The rotarod test was carried out using an automated rotarod (E103, UGO BASILE). […] The latency to fall was recorded for a maximum recording time of 600 seconds. The behavior was monitored by a video camera.
This test was carried out by leaving a pole in the cage where the mice were housed. […] The time that the mouse took to turn his head from upward to downward (Time: Turn) and the time the mouse took to reach the floor with his forepaws (Time: Locomotion Activity) were recorded. Each mouse was tested three times with 5 min. intervals, and the average time was quantified. […]

For `COc1cc2nc(N3CCN(C(=O)C4CCCO4)CC3)nc(N)c2cc1OC` (stereo not shown) [TZ, terazosin], the “human α-synuclein in striatum and SNc and motor performance on rotarod and pole test” value was “partially prevented”.
